Reference: patent US9557338B2 (SIGNAL PHARMACEUTICALS, LLC, priority 2012, dated 2017)
Like-named read-outs stand apart in the source and are kept apart here.

Experiments:
Assay type in all cases: cell-based
[1] = system: Phospho-PRAS40(T246); experiment: Luminex multiplex assay, Phospho-PRAS40(T246); conditions: PC3 cell line; read-out: Luminex PRAS40
Procedure, shortened: (§1)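 Cells (PC3; HCT-116, MDA-MB-231 and HT29 with 500 ng/mL recombinant human IGF-I for the final 10 min) treated with compound or rapamycin over a concentration range for 1 h at 37° C, 5% CO2. Lysates read by bead-based Luminex sandwich immunoassay, 3 h at room temperature, RPE anti-rabbit detection, quantified against phosphoprotein standard curves.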

[2] = system: Phospho-GSK3β(S9); experiment: Luminex multiplex assay, Phospho-GSK3β(S9); conditions: PC3 cell line; read-out: Luminex GSK-3β
Procedure, shortened: as §1

[3] = system: GSK-3β; experiment: MSD assay, GSK-3β phosphorylation in cell lysates
[4] = system: Phospho-p70S6K (T389); experiment: MSD assay, phospho-p70S6K (T389) in cell lysates
Experimental: Determination of Phospho-p70S6K (T389) in Cell Lysates.
MSD® biomarker detection assays provide a rapid and convenient method for measuring the total and phosphorylated levels of protein targets within a single small-volume sample. In the assay, an antibody for a specific protein target is coated on one electrode (or spot) per well. The samples (cell lysates) are added to the well with a solution containing the detection antibody labeled with an electrochemiluminescent (ECL) compound, MSD SULFOTAG™ label, over the course of one or more incubation periods. The total protein present in the sample binds to the capture antibodies immobilized on the working electrode surface; recruitment of the labeled detection antibody by bound phospho-p70S6K completes the sandwich. MSD Read Buffer that provides the appropriate chemical environment for ECL is added and the plate is read using an MSD SECTOR™ Imager. Inside the SECTOR Imager, a voltage is applied to the plate electrodes which cause the labels bound to the electrode surface to emit light. The instrument measures intensity of the emitted light to afford a quantitative measure of the amount of phosphorylated protein present in the sample.
Cells were plated in 96-well flat bottom plates at the required density determined for each cell line and the cells were allowed to equilibrate at 37° C., 5% CO2 overnight. The following day, the cells were treated with Compound 1 over a range of concentrations for one hour in 5% CO2 at 37° C. After the incubation period, the culture medium was removed carefully with an aspirator. The plate was placed on ice and 50 μL of 1× Tris Lysis Buffer were added to each well. The plate was placed on a shaker at 4° C. for one hour to lyse the cells. At that point, the plate was either frozen at −80° C. for later analysis or immediately assayed for phosphoproteins as described below. To monitor interassay variability, Compound 1 was compared among all plates as a reference standard.
The assay plate was incubated with 150 μL of MSD Blocking Buffer for one hour with shaking at room temperature. The plates were washed 3 times with Tris Wash Buffer. Then 35 μL of cell lysate was added to the wells and incubated for one hour with shaking at room temperature. The solution was removed from the wells and the plate was washed 3 times with wash buffer. Twenty-five microliters of the appropriate antibody solution was then incubated for one hour with shaking at room temperature. The solution was removed from the wells and the plate was washed 3 times with wash buffer. Then 150 μL of 1×MSD Read Buffer T was added to each well. The plate was read on the SECTOR Imager plate reader.

[5] = system: p70S6K; experiment: Luminex multiplex assay, p70S6K phosphorylation in cell lysates
[6] = PC3 cell line, read-out: MSD GSK-3β
[7] = PC3 cell line, read-out: MSD p70S6K
[8] = PC3 cell line, read-out: Luminex p70S6K
[9] = Homo sapiens, HCT-116, HCT116 cell line, IGF, read-out: MSD GSK-3β (IGF)
[10] = Homo sapiens, U-87 MG, U87MG cell line, read-out: MSD GSK-3β
[11] = Homo sapiens, HCT-116, HCT116 cell line, IGF, read-out: MSD p70S6K (IGF)
[12] = Homo sapiens, U-87 MG, U87MG cell line, read-out: MSD p70S6K

SMILES | IC50 [3, 6] | IC50 [4, 7] | further results
Cc1nc(-c2nnc[nH]2)ccc1-c1cnc2c(n1)N(C(C)C)C(=O)CN2 [C-69] | 394 nM | 80 nM | IC50 [1]: 285 nM; IC50 [2]: 342 nM
CCn1c(=O)[nH]c2ncc(-c3ccc(-c4ncn[nH]4)c(F)c3C)nc21 [C-12] | > 5000 nM | 436 nM | IC50 [1]: 1120 nM; IC50 [5, 8]: 79 nM; IC50 [2]: 936 nM
COC1CCC(N2C(=O)CNc3ncc(-c4cnc(-c5ncn[nH]5)cc4C)nc32)CC1 (stereo not shown) [C-93] | > 1.5 nM | 1 nM | IC50 [2]: 2 nM
Cc1nc(-c2nnc[nH]2)ccc1-c1cnc2c(n1)N(CCC1CCOCC1)C(=O)CN2 [C-9] | 213 nM | 4 nM | IC50 [1]: 37 nM; IC50 [2]: 43 nM
Cc1cc(-c2nc[nH]n2)c(F)cc1-c1cnc2c(n1)N([C@H]1CC[C@H](O)CC1)C(=O)CN2 [C-130] | 12 nM | < 0.835 nM | 
CCN1C(=O)CNc2ncc(-c3cnc4[nH]ccc4c3)nc21 [C-103] | > 500 nM | > 500 nM | IC50 [1]: 696 nM; IC50 [5, 8]: 150 nM; IC50 [2]: 153 nM
CO[C@H]1CC[C@@H](CN2CC(=O)Nc3ncc(-c4cc(F)c(-c5nc[nH]n5)cc4C)nc32)CC1 [C-160] | > 500 nM | < 1.5 nM | 
Cc1cc(-c2nc[nH]n2)c(F)cc1-c1cnc2c(n1)N(C(C)C)CC(=O)N2 [C-120] | 99 nM | 12 nM | 
COC1CCC(N2CC(=O)Nc3ncc(-c4ccc(-c5ncn[nH]5)nc4)nc32)CC1 (stereo not shown) [C-146] | > 500 nM | 12 nM | 
O=c1[nH]c2ncc(-c3ccc(-c4nc[nH]n4)cc3)nc2n1CCC1CCOCC1 [C-2] | > 1500 nM | 46 nM | IC50 [1]: 180 nM; IC50 [5, 8]: 30 nM; IC50 [2]: 255 nM
O=C1CN(CCC2CCOCC2)c2nc(-c3c[nH]c4ncccc34)cnc2N1 [C-169] | 2820 nM | 419 nM | 
O=C1CNc2ncc(-c3cccc4[nH]ncc34)nc2N1CCC1CCOCC1 [C-117] | > 5000 nM | > 5000 nM | 
COC1CCC(N2CC(=O)Nc3ncc(-c4cc(F)c(-c5nc[nH]n5)cc4C)nc32)CC1 (stereo not shown) [C-148] | 65 nM | < 1.5 nM | 
COCCN1C(=O)CNc2ncc(-c3ccc(-c4nnc[nH]4)nc3C)nc21 [C-14] | 366 nM | 31 nM | IC50 [1]: 61 nM; IC50 [2]: 366 nM
O=C1CNc2ncc(-c3ccc(O)nc3)nc2N1CCC1CCOCC1 [C-113] | > 500 nM | > 500 nM | 
COC1CCC(N2C(=O)CNc3ncc(-c4ccc(-c5nnc[nH]5)nc4C)nc32)CC1 (stereo not shown) [C-16] | 152 nM | 13 nM | IC50 [1]: 43 nM; IC50 [5, 8]: 3 nM; IC50 [2]: 141 nM
Nc1ncc(-c2cnc3c(n2)N(CCC2CCOCC2)C(=O)CN3)cn1 [C-116] | 3990 nM | 303 nM | 
CCN1C(=O)CNc2ncc(-c3ccc(-c4nnc[nH]4)nc3C)nc21 [A-12, 1-ethyl-7-(2-methyl-6-(4H-1,2,4-triazol-3-yl)pyridin-3-yl)-3,4-dihydropyrazino[2,3-b]pyrazin-2(1H)-one] |  |  | IC50 [3, 9]: > 2000 nM; IC50 [3, 10]: > 2000 nM; IC50 [4, 11]: 846 nM; IC50 [4, 12]: 252 nM

SMILES | IC50 [3, 6] | IC50 [4, 7] | further results
Cc1nc(-c2nnc[nH]2)ccc1-c1cnc2c(n1)N(C(C)C)C(=O)CN2 [A-13, 1-isopropyl-7-(2-methyl-6-(4H-1,2,4-triazol-3-yl)pyridin-3-yl)-3,4-dihydropyrazino[2,3-b]pyrazin-2(1H)-one] |  |  | IC50 [3, 9]: > 2000 nM; IC50 [3, 10]: > 2000 nM; IC50 [4, 11]: 941 nM; IC50 [4, 12]: 351 nM
CCN1C(=O)CNc2ncc(-c3ccc(-c4nnc[nH]4)nc3C)nc21 [C-54] | 181 nM | 31 nM | IC50 [1]: 39 nM; IC50 [5, 8]: 13 nM; IC50 [2]: 370 nM
CCN1CC(=O)Nc2ncc(-c3cc(F)c(-c4nc[nH]n4)cc3C)nc21 [C-119] | 323 nM | 10 nM | 
O=C1CNc2ncc(-c3ccnc4[nH]ccc34)nc2N1CCC1CCOCC1 [C-161] | 2790 nM | 385 nM | 
Cc1cc(-c2nc[nH]n2)c(F)cc1-c1cnc2c(n1)N(C1CCC(O)CC1)CC(=O)N2 (stereo not shown) [C-133] | > 500 nM | 61 nM | 
COC1CCC(N2C(=O)CNc3ncc(-c4cc(F)c(-c5ncn[nH]5)cc4C)nc32)CC1 (stereo not shown) [C-137] | 394 nM | 52 nM | 
CO[C@H]1CC[C@@H](N2CC(=O)Nc3ncc(-c4ccc(-c5nc[nH]n5)c(F)c4C)nc32)CC1 [C-110] | > 150 nM | 22 nM | 
O=C1CN([C@H]2CC[C@H](O)CC2)c2nc(-c3ccc(-c4nc[nH]n4)nc3)cnc2N1 [C-144] | > 500 nM | > 500 nM | 
CC(C)N1C(=O)CNc2ncc(-c3ccc(-c4ncn[nH]4)nc3)nc21 [C-138] | 181 nM | 40 nM | 
Cc1cc(-c2nc[nH]n2)c(F)cc1-c1cnc2c(n1)N(CC1CCC(O)CC1)C(=O)CN2 (stereo not shown) [C-142] | > 500 nM | 18 nM | 
COC1CCC(N2C(=O)CNc3ncc(-c4ccc(-c5ncn[nH]5)nc4)nc32)CC1 (stereo not shown) [C-139] | > 500 nM | 40 nM | 
COC1CCC(CN2C(=O)CNc3ncc(-c4ccc(-c5nc[nH]n5)nc4)nc32)CC1 (stereo not shown) [C-159] | > 500 nM | 6 nM | 
COCCN1C(=O)CNc2ncc(-c3ccc(-c4cc[nH]n4)cc3)nc21 [C-112] | > 500 nM | 36 nM | 
COCCN1C(=O)CNc2ncc(-c3ccc(-c4nnc[nH]4)nc3C)nc21 [A-9, 1-(2-methoxyethyl)-7-(2-methyl-6-(4H-1,2,4-triazol-3-yl)pyridin-3-yl)-3,4-dihydropyrazino[2,3-b]pyrazin-2(1H)-one] |  |  | IC50 ([5]; Homo sapiens, HCT-116, HCT116 cell line, IGF, read-out: Luminex p70S6K (IGF)): 103 nM; IC50 ([5]; Homo sapiens, U-87 MG, U87MG cell line, read-out: Luminex p70S6K): 37.7 nM; IC50 [3, 9]: > 2000 nM; IC50 [3, 10]: > 2000 nM; IC50 [4, 11]: 846 nM; IC50 [4, 12]: 268 nM
O=C1CNc2ncc(-c3ccc(-c4nc[nH]n4)nc3)nc2N1C1CCC(O)CC1 (stereo not shown) [C-140] | > 500 nM | 70 nM | 
Cc1cc(-c2nc[nH]n2)c(F)cc1-c1cnc2c(n1)N(C1CCC(O)CC1)CC(=O)N2 (stereo not shown) [C-123] | > 500 nM | 13 nM | 
COC1CCC(CN2CC(=O)Nc3ncc(-c4cc(F)c(-c5nc[nH]n5)cc4C)nc32)CC1 (stereo not shown) [C-163] | > 500 nM | > 500 nM | 
